# Tested on: NFkB pathway
# Assay: Gene expression in RAW 264.7 myeloid cells with NFkB inhibitor
# Assay type: cell-based, murine
# Settings: presence of NFkB inhibitor; LPS-treated cells, 8 hours
# Method: FIG. 6A illustrates gene expression of PLAUR in myeloid cells treated with NFkB inhibitor BMS 345541 and then subsequently treated for 8 hours with LA 1(20 uM), LPS (12.5, 25, 50, 100, or 250 ng/ml), or LPS and LA1 co-treatment (L+L).
# FIG. 6B illustrates gene expression of NLRP3 in myeloid cells treated with NFkB inhibitor BMS 345541 and then subsequently treated for 8 hours with LA 1(20 uM), LPS (12.5, 25, 50, 100, or 250 ng/ml), or LPS and LA1 co-treatment (L+L).
# FIG. 6C illustrates gene expression of and IL-6 in myeloid cells treated with NFkB inhibitor BMS 345541 and then subsequently treated for 8 hours with LA 1(20 uM), LPS (12.5, 25, 50, 100, or 250 ng/ml), or LPS and LA1 co-treatment (L+L).
# In order to determine potential molecular mechanisms resulting in uPAR expression, the association between uPAR/suPAR and other inflammatory cytokines and the NFkB pathway were investigated. uPAR expression levels in RAW 264.7 myeloid cells were evaluated in the absence or presence of a known NFkB inhibitor, BMS 345541.
smiles,measurement,value
Cc1ccc2nc(NCCN)c3ncc(C)n3c2c1 [BMS 345541],expression levels of IL-6,reduced
same,expression levels of NLRP3,reduced
same,relative gene expression of PLAUR (uPAR),reduced relative gene expression
